Source: ChEMBL document CHEMBL1157025, “Evaluation of aldose reductase inhibition and docking studies of 6'-nitro and 6',6''-dinitrorosmarinic acids” (Eur J Med Chem, 2010)

Biological target: Aldo-keto reductase family 1 member B1 (Homo sapiens, UniProt P15121)
Assay: Inhibition of aldose reductase

Row | IC50 [nM] | SMILES | IC50 (read-out: IC50) [nM]
1 |  | O=C(/C=C/c1ccc(O)c(O)c1)O[C@H](Cc1cc(O)c(O)cc1[N+](=O)[O-])C(=O)O | 1840
2 |  | O=C(/C=C/c1cc(O)c(O)cc1[N+](=O)[O-])O[C@H](Cc1cc(O)c(O)cc1[N+](=O)[O-])C(=O)O | 741
3 | 3910 | O=C(/C=C/c1ccc(O)c(O)c1)O[C@H](Cc1ccc(O)c(O)c1)C(=O)O [ROSMARINIC ACID] | 
